Reference: patent publication US11866695B2, “Methods and systems and related compositions for mixtures separation with a solid matrix” (CALIFORNIA INSTITUTE OF TECHNOLOGY, priority 2019, dated 2024)
Read-outs that look alike come from different tables or passages of the source.

Assays:
[1] = system: qPCR spiked with 5×104 copies λ phage DNA; format: biochemical; conditions: 1 μL candidate in 11 μL total; for Avg Cq: N.D. = not detected within 40 cycles; for ΔCq: minus the No additive control
Procedure: Heating and real-time imaging were performed on the Bio-Rad CFX-96 Touch Real-Time PCR Detection System by heating to 95° C. for 5 min, cycling 40 times between 95° C. for 15 s, 60° C. for 15 s, and 72° C. for 20 s, and taking a melt-curve analysis. For the E. coli DNA dilution experiment, qPCR was run for 60 cycles. Fluorescence readings were taken at the end of each extension step. Quantification cycle (Cq) was determined when the software's automated baseline corrected fluorescence reached 200 RFU.
(§1) Criterion 1a was investigated directly by performing qPCR and LAMP reactions. Reactions were spiked with λ phage DNA, diluted up to 10 μL, and an additional 1 μL of different wash buffer candidates was added to a total of 11 μL. […] As an experimental control, a “No Additive” condition was tested, which was a 10 μL reaction with optimized reaction conditions and no inhibitors. To control for the effects of a 1 μL dilution on the reaction, a “Water” condition which was an 11 μL reaction with no inhibitors was also tested.

[2] = system: LAMP spiked with 5×104 copies λ phage DNA; assay: TPW screen with LAMP (1 μL wash candidate added to 10 μL reaction); format: biochemical; conditions: 1 μL candidate in 11 μL total
Procedure: LAMP primers (Integrated DNA Technologies (IDT), Coralville, Iowa, USA) were designed, ordered, and added at NEB's recommended concentrations of […] FIP/BIP, 0.2μM F3/B3, and […] LoopF/B.
Each 96-well plate was sealed and briefly spun. […] Time-to-positive (TTP) was determined when the software's automated baseline corrected fluorescence reached 1000 RFU.
as §1

[3] = system: λ phage DNA; assay: Zymo Quick-Viral DNA/RNA kit extraction with additional TPW, LAMP with 2× diluted eluent; format: biochemical
Procedure: LAMP reactions contained the following concentrations of reagents: 1× Isothermal Amplification Buffer (20 mM Tris-HCl pH 8.8, 10 mM (NH4)2SO4, 50 mM KCl, 5 mM MgSO4, 0.1% Tween-20, B0537S, NEB, Ipswich, Mass., USA), an additional 2 mM MgSO4 (B1003S, NEB), 1.4 mM deoxynucleotide mix (N0447L or N0446S, NEB), […] Invitrogen Syto-9 (S34854, Thermo Fisher Scientific), […] Invitrogen bovine serum albumin (15561020, Thermo Fisher Scientific), 320 U/mL WarmStart Bst 2.0 (M0538L, NEB), and were supplemented with nuclease-free water (not DEPC-Treated, 4387936, Thermo Fisher Scientific) up to 10 μL. LAMP primers (Integrated DNA Technologies (IDT), Coralville, Iowa, USA) were designed, ordered, and added at NEB's recommended concentrations of […] FIP/BIP, 0.2μM F3/B3, and […] LoopF/B.
Each 96-well plate was sealed and briefly spun. Heating and real-time imaging were performed on the Bio-Rad CFX-96 Touch Real-Time PCR Detection System (1855195, Bio-Rad). Each 96-well plate was cooled to 12° C. for 2 min, held at 68° C. for 47 min with 35-second fluorescence read intervals, and a melt-curve analysis was performed. For the E. coli DNA dilution experiment, the 68° C. step was held for 105 min. Time-to-positive (TTP) was determined when the software's automated baseline corrected fluorescence reached 1000 RFU.
Three different silica-column kits were tested, including: Zymo ZR Viral DNA/RNA Kit (outdated protocol, D7021), Zymo Quick-DNA/RNA Kit (updated protocol, D7021), and the QIAquick PCR Purification Kit (28104, Qiagen). For all silica-column kits, fresh collection tubes were used after each spin and centrifugation speeds were set to 16,000×g. Centrifugation was performed on either an Eppendorf 5415D centrifuge (Eppendorf, Hauppauge, N.Y., USA) or a Thermo Fisher Scientific AccuSpin Micro 17R centrifuge (13-100-676). It was noted that the QIAquick protocol calls for 17,900×g, but instead was run at 16,000×g which was the max speed for the Eppendorf 5415D. […]

[4] = cited from earlier work

SMILES | Avg Cq [1] [cycles] | ΔCq [1] [cycles] | Avg TTP ([2]; N.D. = not detected within 40 min) [min] | ΔTTP ([2]; minus the No additive control) [min] | reduction in TTP vs manufacturer protocol ([3]; 2× eluent dilution) [min] | TTP ([3]; 2× eluent dilution, 3 columns) [min] | TTP ([3]; all 27 wells) [min] | Solubility of TPW Candidate in water [4] [g/100 mL] | Solubility of water in TPW Candidate [4] [g/100 g] | Solubility of TPW Candidate in water ([4]; in words) | Solubility of water in TPW Candidate ([4]; in words)
CCCCCCCCCCCO [1-undecanol] | 19.67 | −0.42 | 6.70 | 0.16 | 0.78 | 6.00 ± 0.04 | 10.23 ± 0.06 | 0.0015 | 3.4 | – | –
CCO [Ethanol, ethanol] | 25.30 | 5.21 | – | – | – | – | – | – | – | Miscible | Miscible
